Data as given in PubChem BioAssay AID248 (DTP/NCI, 2004).
Where “and” joins values, the source holds several entries; their conditions need not be identical. Identical values can stand only once. Toxic doses and inconclusive results are not listed.

System: L1210 leukemia ip in BDF1 mice, survival T/C
Assay: NCI In Vivo Anticancer Drug Screen. Data for tumor model L1210 Leukemia (intraperitoneal) in B6D2F1 (BDF1) mice
Details: endpoint: mean survival time, higher = longer survival
Summary of the method: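 Read-out is survival time, reported as the treated-group measurement over the vehicle-control measurement.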

[1] = dose: 100.0 mg/kg/injection, schedule: Q01DX001 (ip), vehicle: carboxymethylcellulose (CMC)
[2] = dose: 100.0 mg/kg/injection, schedule: Q04DX002 (ip), vehicle: Klucel (hydroxypropylcellulose) (HPC)
[3] = dose: 200.0 mg/kg/injection, schedule: Q01DX001 (ip), vehicle: carboxymethylcellulose (CMC)
[4] = dose: 200.0 mg/kg/injection, schedule: Q04DX002 (ip), vehicle: Klucel (hydroxypropylcellulose) (HPC)
[5] = dose: 100.0 mg/kg/injection, schedule: Q01DX009 (ip), vehicle: Klucel (hydroxypropylcellulose) (HPC)
[6] = dose: 200.0 mg/kg/injection, schedule: Q01DX009 (ip), vehicle: Klucel (hydroxypropylcellulose) (HPC)
[7] = dose: 400.0 mg/kg/injection, schedule: Q04DX002 (ip), vehicle: Klucel (hydroxypropylcellulose) (HPC)
[8] = dose: 400.0 mg/kg/injection, schedule: Q01DX001 (ip), vehicle: carboxymethylcellulose (CMC)
[9] = dose: 100.0 mg/kg/injection, schedule: Q04DX003 (ip), vehicle: Klucel (hydroxypropylcellulose) (HPC)
[10] = dose: 200.0 mg/kg/injection, schedule: Q04DX003 (ip), vehicle: Klucel (hydroxypropylcellulose) (HPC)
[11] = dose: 400.0 mg/kg/injection, schedule: Q04DX003 (ip), vehicle: Klucel (hydroxypropylcellulose) (HPC)
[12] = dose: 25.0 mg/kg/injection, schedule: Q04DX002 (ip), vehicle: Klucel (hydroxypropylcellulose) (HPC)
[13] = dose: 50.0 mg/kg/injection, schedule: Q01DX001 (ip), vehicle: carboxymethylcellulose (CMC)

In the case of NNC(=O)CNc1cc(Cl)cc(Cl)c1, the T/C [1] is reported as 94 % of control, the T/C (dose: 100.0 mg/kg/injection, schedule: Q01DX009 (ip), vehicle: carboxymethylcellulose (CMC)) is reported as 92 % of control and the T/C [2] is reported as 91 % of control. The T/C (dose: 100.0 mg/kg/injection, schedule: Q04DX002 (ip), vehicle: carboxymethylcellulose (CMC)) was 95 % of control and 100 % of control, the T/C (dose: 100.0 mg/kg/injection, schedule: Q04DX003 (ip), vehicle: carboxymethylcellulose (CMC)) was 92 % of control and the T/C [3] was 96 % of control. The T/C (dose: 200.0 mg/kg/injection, schedule: Q01DX009 (ip), vehicle: carboxymethylcellulose (CMC)) was 88 % of control, the T/C [4] was 109 % of control and the T/C (dose: 200.0 mg/kg/injection, schedule: Q04DX002 (ip), vehicle: carboxymethylcellulose (CMC)) was 95 % of control and 104 % of control. The T/C (dose: 200.0 mg/kg/injection, schedule: Q04DX003 (ip), vehicle: carboxymethylcellulose (CMC)) was 97 % of control and the T/C (dose: 400.0 mg/kg/injection, schedule: Q04DX002 (ip), vehicle: carboxymethylcellulose (CMC)) was 98 % of control.

In the case of Nc1nc(=S)c2[nH]c(N=Nc3ccc(S(=O)(=O)Nc4ncccn4)cc3)nc2[nH]1, the T/C (dose: 19.0 mg/kg/injection, schedule: Q04DX003 (ip), vehicle: Klucel (hydroxypropylcellulose) (HPC)) is reported as 164 % of control, the T/C (dose: 29.0 mg/kg/injection, schedule: Q04DX003 (ip), vehicle: Klucel (hydroxypropylcellulose) (HPC)) is reported as 164 % of control and the T/C [5] is reported as 96 % of control. For the same compound, the T/C (dose: 100.0 mg/kg/injection, schedule: Q04DX003 (ip), vehicle: saline with Tween-80) was 185 % of control, the T/C [6] was 97 % of control and the T/C (dose: 200.0 mg/kg/injection, schedule: Q04DX003 (ip), vehicle: saline with Tween-80) was 151 % of control.

With Oc1ccccc1/C=N/Nc1c2ccccc2nc2ccccc12 the T/C (dose: 100.0 mg/kg/injection, schedule: Q01DX001 (ip), vehicle: saline) was 103 % of control and the T/C (dose: 400.0 mg/kg/injection, schedule: Q01DX001 (ip), vehicle: saline) was 93 % of control.

With CC1=NN(c2ccc([N+](=O)[O-])cc2)C(=O)C1[N+](=O)[O-] (stereo not given) (tested in a mixture with another compound) the T/C (dose: 75.0 mg/kg/injection, schedule: Q01DX001 (ip), vehicle: carboxymethylcellulose (CMC)) was 101 % of control, the T/C (dose: 150.0 mg/kg/injection, schedule: Q01DX001 (ip), vehicle: carboxymethylcellulose (CMC)) was 95 % of control and the T/C (dose: 300.0 mg/kg/injection, schedule: Q01DX001 (ip), vehicle: carboxymethylcellulose (CMC)) was 110 % of control.

For [O]=[Cr](=[O])([OH])[O][Cr](=[O])(=[O])[OH], the T/C (dose: 6.25 mg/kg/injection, schedule: Q01DX009 (ip), vehicle: saline) was 104 % of control, the T/C (dose: 12.5 mg/kg/injection, schedule: Q01DX009 (ip), vehicle: saline) was 97 % of control and the T/C (dose: 25.0 mg/kg/injection, schedule: Q04DX003 (ip), vehicle: saline) was 108 % of control.

For CC(C)(C)Sc1cccnc1, the T/C (dose: 100.0 mg/kg/injection, schedule: Q01DX009 (ip), vehicle: saline with Tween-80) was 94 % of control and the T/C (dose: 200.0 mg/kg/injection, schedule: Q01DX009 (ip), vehicle: saline with Tween-80) was 98 % of control.

For COC(=O)C(Cc1c[nH]c2ccccc12)[N+](C)(C)C (stereo not given), the T/C (dose: 35.0 mg/kg/injection, schedule: Q01DX Z (ip), vehicle: saline) was 95 % of control and the T/C (dose: 50.0 mg/kg/injection, schedule: Q01DX Z (ip), vehicle: saline) was 97 % of control.

With Nc1ncccc1O the T/C (dose: 10.0 mg/kg/injection, schedule: Q01DX001 (ip), vehicle: saline) was 105 % of control, the T/C (dose: 20.0 mg/kg/injection, schedule: Q01DX001 (ip), vehicle: saline) was 95 % of control and the T/C (dose: 40.0 mg/kg/injection, schedule: Q01DX001 (ip), vehicle: saline) was 94 % of control.

With Cc1ccc(CNC(=O)Nc2c(C)cccc2C)cc1C the T/C [2] was 102 % of control, the T/C [4] was 108 % of control and the T/C [7] was 97 % of control.

For O=C(NO)Nc1cccc(Cl)c1, the T/C [1] was 103 % of control, the T/C [3] was 97 % of control and the T/C [8] was 100 % of control.

With CN1C(=S)SC(c2ccccc2)N(C)C1c1ccccc1 (stereo not given) the T/C (dose: 50.0 mg/kg/injection, schedule: Q01DX009 (ip), vehicle: Klucel (hydroxypropylcellulose) (HPC)) was 101 % of control, the T/C [5] was 98 % of control and the T/C [9] was 89 % of control. For the same compound, the T/C [6] was 106 % of control, the T/C [10] was 89 % of control and the T/C [11] was 86 % of control.

CCOC(=O)C(CCCO)C(=O)OCC was tested, and the T/C (dose: 100.0 mg/kg/injection, schedule: Q01DX001 (ip), vehicle: saline with Tween-80) was 98 % of control, the T/C (dose: 200.0 mg/kg/injection, schedule: Q01DX001 (ip), vehicle: saline with Tween-80) was 96 % of control and the T/C (dose: 400.0 mg/kg/injection, schedule: Q01DX001 (ip), vehicle: saline with Tween-80) was 91 % of control.

For Cc1cc(C)c(CS)c(C)c1, the T/C [12] was 98 % of control, the T/C (dose: 50.0 mg/kg/injection, schedule: Q04DX002 (ip), vehicle: Klucel (hydroxypropylcellulose) (HPC)) was 95 % of control and the T/C [2] was 98 % of control. The T/C [4] was 95 % of control and the T/C [7] was 100 % of control.

CCCCCCCCCCCC(=O)Nc1ccc(SSc2ccc(NC(=O)CCCCCCCCCCC)cc2)cc1 was tested, and the T/C [13] was 97 % of control, the T/C [1] was 103 % of control and the T/C [3] was 90 % of control. For the same compound, the T/C [8] was 101 % of control.

For Nc1cc(Cl)cc2cc(Br)cnc12, the T/C [9] was 101 % of control, the T/C [10] was 98 % of control and the T/C [11] was 95 % of control.

In the case of O=[N+]([O-])c1ccc2c(c1)[As](=O)(O)c1cc([N+](=O)[O-])ccc1-2, the T/C (dose: 75.0 mg/kg/injection, schedule: Q01DX001 (ip), vehicle: saline) is reported as 120 % of control.

For O=[N+]([O-])c1ccc(C=C2C=c3ccccc3=C2)cc1, the T/C (dose: 12.5 mg/kg/injection, schedule: Q04DX003 (ip), vehicle: Klucel (hydroxypropylcellulose) (HPC)) was 94 % of control, the T/C (dose: 25.0 mg/kg/injection, schedule: Q04DX003 (ip), vehicle: Klucel (hydroxypropylcellulose) (HPC)) was 96 % of control and the T/C (dose: 50.0 mg/kg/injection, schedule: Q04DX003 (ip), vehicle: Klucel (hydroxypropylcellulose) (HPC)) was 97 % of control.

NC(N)=Nc1ccc(C(=O)Oc2ccc(OC(=O)c3cccc(N=C(N)N)c3)cc2)cc1 was tested, and the T/C (dose: 50.0 mg/kg/injection, schedule: Q01DX009 (ip), vehicle: water) was 96 % of control, the T/C (dose: 50.0 mg/kg/injection, schedule: Q04DX003 (ip), vehicle: water) was 90 % of control and the T/C (dose: 100.0 mg/kg/injection, schedule: Q01DX009 (ip), vehicle: water) was 98 % of control. The T/C (dose: 100.0 mg/kg/injection, schedule: Q04DX003 (ip), vehicle: water) was 93 % of control and 97 % of control, the T/C (dose: 200.0 mg/kg/injection, schedule: Q01DX009 (ip), vehicle: water) was 92 % of control and the T/C (dose: 200.0 mg/kg/injection, schedule: Q04DX003 (ip), vehicle: water) was 98 % of control and 100 % of control. For the same compound, the T/C (dose: 400.0 mg/kg/injection, schedule: Q04DX003 (ip), vehicle: water) was 93 % of control and 95 % of control.

For CC(=O)O[C@H]1CC[C@@]2(C)C(=CC[C@H]3[C@@H]4CC[C@H](O)[C@@]4(C)CC[C@@H]32)C1, the T/C [9] was 103 % of control, the T/C [10] was 103 % of control and the T/C [11] was 96 % of control.

For Nc1ccc(-c2ccccc2)cc1Br, the T/C (dose: 15.0 mg/kg/injection, schedule: Q01DX001 (ip), vehicle: carboxymethylcellulose (CMC)) was 101 % of control and the T/C (dose: 30.0 mg/kg/injection, schedule: Q01DX001 (ip), vehicle: carboxymethylcellulose (CMC)) was 96 % of control.

With CCCCCCCC/C=C\CCCCCCCCNP(=O)(OC)OC the T/C (dose: 25.0 mg/kg/injection, schedule: Q04DX002 (ip), vehicle: saline with Tween-80) was 96 % of control, the T/C (dose: 50.0 mg/kg/injection, schedule: Q04DX002 (ip), vehicle: saline with Tween-80) was 92 % of control and the T/C (dose: 100.0 mg/kg/injection, schedule: Q04DX002 (ip), vehicle: saline with Tween-80) was 101 % of control and 92 % of control.

For NC(N)=N/N=C/c1cc(Cl)ccc1O, the T/C (dose: 12.5 mg/kg/injection, schedule: Q04DX002 (ip), vehicle: Klucel (hydroxypropylcellulose) (HPC)) was 93 % of control, the T/C [12] was 93 % of control and 110 % of control and the T/C [2] was 106 % of control.

For NC(=O)C1(Nc2ccc(-c3ccc(I)cc3)cc2)CCCC1, the T/C [13] was 86 % of control, the T/C [1] was 86 % of control and the T/C [3] was 86 % of control. The T/C [8] was 90 % of control.
